Test results taken from the NIST ThermoML archive (doi:10.1021/je200030k).
± gives the expanded uncertainty stated by the source.

Columns and labels:
[1] = xn = mol fraction of the nth substance listed; settings: 101 kPa, Liquid, Vibrating tube method
[2] = refractive index (Na D-line) (dimensionless); xn = mol fraction of the nth substance listed; settings: 101 kPa, Liquid, Standard Abbe refractometry

CCCCn1cc[n+](C)c1.NCC(=O)[O-] [1-butyl-3-methylimidazolium glycinate] + CCCCO
Settings	mass density, [1] [kg/m3]	refractive index, [2]
298.15 K, x1 = 0.0972	885.2 ± 1	1.418 ± 0.002
298.15 K, x1 = 0.2125	962.5 ± 1	1.438 ± 0.002
298.15 K, x1 = 0.3041	1014.1 ± 1	1.454 ± 0.002
298.15 K, x1 = 0.3849	1054.3 ± 1	1.465 ± 0.002
298.15 K, x1 = 0.4929	1101.4 ± 1	1.478 ± 0.002
298.15 K, x1 = 0.6103	1146.3 ± 1	1.49 ± 0.002
298.15 K, x1 = 0.6923	1174.2 ± 1	1.497 ± 0.002
298.15 K, x1 = 0.8037	1208.4 ± 1.1	1.506 ± 0.002
298.15 K, x1 = 0.9129	–	1.514 ± 0.002
303.15 K, x1 = 0.0972	881.7 ± 1	1.417 ± 0.002
303.15 K, x1 = 0.2125	959.1 ± 1	1.438 ± 0.002
303.15 K, x1 = 0.3041	1010.9 ± 1	1.452 ± 0.002
303.15 K, x1 = 0.3849	1051.2 ± 1	1.463 ± 0.002
303.15 K, x1 = 0.4929	1098.4 ± 1	1.476 ± 0.002
303.15 K, x1 = 0.6103	1143.3 ± 1	1.488 ± 0.002
303.15 K, x1 = 0.6923	1171.2 ± 1	1.496 ± 0.002
303.15 K, x1 = 0.8037	1205.4 ± 1.1	1.505 ± 0.002
303.15 K, x1 = 0.9129	–	1.513 ± 0.002
308.15 K, x1 = 0.0972	878 ± 1	1.415 ± 0.002
308.15 K, x1 = 0.2125	955 ± 1	1.437 ± 0.002
308.15 K, x1 = 0.3041	1007 ± 1	1.45 ± 0.002
308.15 K, x1 = 0.3849	1048 ± 1	1.461 ± 0.002
308.15 K, x1 = 0.4929	1095 ± 1	1.474 ± 0.002
308.15 K, x1 = 0.6103	1140 ± 1	1.487 ± 0.002
308.15 K, x1 = 0.6923	1168 ± 1	1.495 ± 0.002
308.15 K, x1 = 0.8037	1202 ± 1	1.504 ± 0.002
308.15 K, x1 = 0.9129	1232 ± 1	1.512 ± 0.002
313.15 K, x1 = 0.0972	874 ± 1	1.413 ± 0.002
313.15 K, x1 = 0.2125	952 ± 1	1.435 ± 0.002
313.15 K, x1 = 0.3041	1004 ± 1	1.45 ± 0.002
313.15 K, x1 = 0.3849	1044 ± 1	1.461 ± 0.002
313.15 K, x1 = 0.4929	1092 ± 1	1.474 ± 0.002
313.15 K, x1 = 0.6103	1137 ± 1	1.486 ± 0.002
313.15 K, x1 = 0.6923	1165 ± 1	1.495 ± 0.002
313.15 K, x1 = 0.8037	1199 ± 1	1.503 ± 0.002
313.15 K, x1 = 0.9129	–	1.51 ± 0.002
